SMILES strings stand for the structures. ± gives the expanded uncertainty stated by the source.

These results are taken from the NIST ThermoML archive (doi:10.1021/acs.jced.8b00080).

The nature of this data set: activity coefficient (dimensionless); of the first substance listed, at infinite dilution; xn = mol fraction of the nth substance listed. Particulars: 101.33 kPa, Liquid, Chromatography, x1 = 0.

In the case of `Cc1ccccc1C` [1,2-dimethylbenzene] + C[n+]1ccn(CCO)c1.O=S(=O)([O-])C(F)(F)C(F)(F)C(F)(F)C(F)(F)F, the activity coefficient amounted to 10.4 ± 0.37 (303 K); 9.7 ± 0.35 (313 K); 8.9 ± 0.32 (323 K); 7.81 ± 0.28 (333 K); 7.04 ± 0.25 (343 K); 6.52 ± 0.23 (353 K).

Turning to `Cc1cccc(C)c1` [1,3-dimethylbenzene] + C[n+]1ccn(CCO)c1.O=S(=O)([O-])C(F)(F)C(F)(F)C(F)(F)C(F)(F)F, the activity coefficient reads like this: (303 K) 11.6 ± 0.42; (313 K) 10.8 ± 0.39; (323 K) 9.86 ± 0.35; (333 K) 8.71 ± 0.31; (343 K) 7.91 ± 0.28; (353 K) 7.2 ± 0.26.

For the compound `Cc1ccc(C)cc1` [1,4-dimethylbenzene] + C[n+]1ccn(CCO)c1.O=S(=O)([O-])C(F)(F)C(F)(F)C(F)(F)C(F)(F)F, the activity coefficient runs as follows: (303 K) 11.9 ± 0.43; (313 K) 11 ± 0.39; (323 K) 9.88 ± 0.35; (333 K) 8.78 ± 0.31; (343 K) 8 ± 0.28; (353 K) 7.59 ± 0.27.

As to `C1COCCO1` [1,4-dioxane] + C[n+]1ccn(CCO)c1.O=S(=O)([O-])C(F)(F)C(F)(F)C(F)(F)C(F)(F)F, the activity coefficient (303 K) amounted to 1.67 ± 0.09; the activity coefficient (313 K) is 1.64 ± 0.09; the activity coefficient (323 K) was 1.61 ± 0.09; the activity coefficient (333 K) is 1.59 ± 0.09; the activity coefficient (343 K) is 1.56 ± 0.09; the activity coefficient (353 K) was 1.53 ± 0.09.

Consider `C=CCCCCCCCC` [1-decene] + C[n+]1ccn(CCO)c1.O=S(=O)([O-])C(F)(F)C(F)(F)C(F)(F)C(F)(F)F, for which the activity coefficient is, setting by setting: (303 K) 122 ± 4.5; (313 K) 107 ± 3.9; (323 K) 91.5 ± 3.3; (333 K) 79.6 ± 2.9; (343 K) 67.7 ± 2.5; (353 K) 59.2 ± 2.1.

As to `C#CCCCCC` [1-heptyne] + C[n+]1ccn(CCO)c1.O=S(=O)([O-])C(F)(F)C(F)(F)C(F)(F)C(F)(F)F, the activity coefficient turned out to be 16.7 ± 0.6 (303 K); 15.1 ± 0.54 (313 K); 13.4 ± 0.48 (323 K); 11.9 ± 0.43 (333 K); 10.4 ± 0.37 (343 K); 9.29 ± 0.33 (353 K).

`C#CCCCC` [1-hexyne] + C[n+]1ccn(CCO)c1.O=S(=O)([O-])C(F)(F)C(F)(F)C(F)(F)C(F)(F)F: the activity coefficient worked out at 10.4 ± 0.37 (303 K); 9.24 ± 0.33 (313 K); 7.92 ± 0.28 (323 K); 6.97 ± 0.25 (333 K); 6.03 ± 0.21 (343 K); 5.18 ± 0.19 (353 K).

As for `C#CCCCCCC` [1-octyne] + C[n+]1ccn(CCO)c1.O=S(=O)([O-])C(F)(F)C(F)(F)C(F)(F)C(F)(F)F, the activity coefficient runs as follows: (303 K) 26.2 ± 0.94; (313 K) 23.8 ± 0.85; (323 K) 21.2 ± 0.76; (333 K) 19.1 ± 0.69; (343 K) 16.9 ± 0.61; (353 K) 14.8 ± 0.53.

On to `C#CCCC` [1-pentyne] + C[n+]1ccn(CCO)c1.O=S(=O)([O-])C(F)(F)C(F)(F)C(F)(F)C(F)(F)F, for which the activity coefficient reads like this: (303 K) 5.99 ± 0.21; (313 K) 5.07 ± 0.18; (323 K) 4.21 ± 0.16; (333 K) 3.68 ± 0.14; (343 K) 3.11 ± 0.13; (353 K) 2.59 ± 0.12.

For the compound `CC(C)=O` [acetone] + C[n+]1ccn(CCO)c1.O=S(=O)([O-])C(F)(F)C(F)(F)C(F)(F)C(F)(F)F, the activity coefficient by setting is: (303 K) 0.93 ± 0.08; (313 K) 0.91 ± 0.08; (323 K) 0.9 ± 0.08; (333 K) 0.88 ± 0.08; (343 K) 0.85 ± 0.08; (353 K) 0.83 ± 0.08.

Regarding `CC#N` [acetonitrile] + C[n+]1ccn(CCO)c1.O=S(=O)([O-])C(F)(F)C(F)(F)C(F)(F)C(F)(F)F, the activity coefficient (303 K) is 0.99 ± 0.08; the activity coefficient (313 K) was 0.97 ± 0.08; the activity coefficient (323 K) is 0.93 ± 0.08; the activity coefficient (333 K) was 0.9 ± 0.08; the activity coefficient (343 K) is 0.87 ± 0.08; the activity coefficient (353 K) was 0.84 ± 0.08.

`c1ccccc1` [benzene] + C[n+]1ccn(CCO)c1.O=S(=O)([O-])C(F)(F)C(F)(F)C(F)(F)C(F)(F)F: the activity coefficient stood at 4.71 ± 0.17 (303 K); 4.27 ± 0.16 (313 K); 3.85 ± 0.15 (323 K); 3.34 ± 0.13 (333 K); 2.95 ± 0.12 (343 K); 2.65 ± 0.12 (353 K).

For the compound `C1CCCCC1` [cyclohexane] + C[n+]1ccn(CCO)c1.O=S(=O)([O-])C(F)(F)C(F)(F)C(F)(F)C(F)(F)F, the activity coefficient by setting is: (303 K) 24.3 ± 0.88; (313 K) 19.1 ± 0.69; (323 K) 15.2 ± 0.55; (333 K) 11.7 ± 0.42; (343 K) 9.39 ± 0.34; (353 K) 7.54 ± 0.27.

Take `ClCCl` [dichloromethane] + C[n+]1ccn(CCO)c1.O=S(=O)([O-])C(F)(F)C(F)(F)C(F)(F)C(F)(F)F: the activity coefficient is, setting by setting: (303 K) 2.14 ± 0.11; (313 K) 1.99 ± 0.1; (323 K) 1.85 ± 0.1; (333 K) 1.69 ± 0.09; (343 K) 1.54 ± 0.09; (353 K) 1.45 ± 0.09.

Regarding `CCO` [ethanol] + C[n+]1ccn(CCO)c1.O=S(=O)([O-])C(F)(F)C(F)(F)C(F)(F)C(F)(F)F, the activity coefficient reads like this: (303 K) 1.56 ± 0.09; (313 K) 1.48 ± 0.09; (323 K) 1.38 ± 0.09; (333 K) 1.31 ± 0.09; (343 K) 1.22 ± 0.08; (353 K) 1.14 ± 0.08.

Turning to `CCc1ccccc1` [ethylbenzene] + C[n+]1ccn(CCO)c1.O=S(=O)([O-])C(F)(F)C(F)(F)C(F)(F)C(F)(F)F, the activity coefficient is 12.1 ± 0.43 (303 K); 11 ± 0.39 (313 K); 10.1 ± 0.36 (323 K); 8.82 ± 0.31 (333 K); 7.93 ± 0.28 (343 K); 7.09 ± 0.25 (353 K).

In the case of `CCCCCCC` [heptane] + C[n+]1ccn(CCO)c1.O=S(=O)([O-])C(F)(F)C(F)(F)C(F)(F)C(F)(F)F, the activity coefficient was determined as 53 ± 1.9 (303 K); 39.7 ± 1.4 (313 K); 30.9 ± 1.1 (323 K); 23.6 ± 0.86 (333 K); 18 ± 0.65 (343 K); 13.9 ± 0.5 (353 K).

With `C=CCCCC` [hex-1-ene] + C[n+]1ccn(CCO)c1.O=S(=O)([O-])C(F)(F)C(F)(F)C(F)(F)C(F)(F)F, the activity coefficient runs as follows: (303 K) 15.7 ± 0.57; (313 K) 12.4 ± 0.45; (323 K) 9.71 ± 0.35; (333 K) 7.62 ± 0.27; (343 K) 6.07 ± 0.22; (353 K) 4.97 ± 0.18.
